From ChEMBL document CHEMBL5614367, “Hydroxamic acid hybrids: Histone deacetylase inhibitors with anticancer therapeutic potency” (Eur J Med Chem, 2023)
Values belong to the compound of their own block, whether it stands above or below them.

What was measured:
NCI-H23 = experiment: Antiproliferative activity against human NCI-H23 cells incubated for 72 hrs by colorimetric method; type: functional, cell-based; conditions: NCI-H23, 72 h
SW-620 = experiment: Antiproliferative activity against human SW620 cells incubated for 72 hrs by colorimetric method; type: functional, cell-based; conditions: SW-620, 72 h
Histone deacetylase = experiment: Inhibition of HDAC (unknown origin); type: protein assay, Homo sapiens
PC-3 = experiment: Antiproliferative activity against human PC-3 cells incubated for 72 hrs by colorimetric method; type: functional, cell-based; conditions: PC-3, 72 h
U-266 = experiment: cells; type: functional, cell-based; conditions: Homo sapiens, U-266, 48 h
[1] = Cytotoxicity against HEK293 cells assessed as inhibition of cell growth incubated for 48 hrs by MTT assay; type: toxicity, cell-based; conditions: human
RPMI-8226 = experiment: Antiproliferative activity against human RPMI-8226 cells assessed as inhibition of cell growth incubated for 48 hrs by MTT assay; type: functional, cell-based; conditions: RPMI-8226, 48 h
[2] = Cytotoxicity against human L02 cells assessed as inhibition of cell growth incubated for 48 hrs by MTT assay; type: toxicity, cell-based
MM1.S = experiment: Antiproliferative activity against human MM1.S cells assessed as inhibition of cell growth incubated for 48 hrs by MTT assay; type: functional, cell-based
[3] = target: T1, Protein deacetylase HDAC6 (Homo sapiens, UniProt Q9UBN7); experiment: Inhibition of HDAC6 (unknown origin)
T1 sequence (Q9UBN7 whole entry): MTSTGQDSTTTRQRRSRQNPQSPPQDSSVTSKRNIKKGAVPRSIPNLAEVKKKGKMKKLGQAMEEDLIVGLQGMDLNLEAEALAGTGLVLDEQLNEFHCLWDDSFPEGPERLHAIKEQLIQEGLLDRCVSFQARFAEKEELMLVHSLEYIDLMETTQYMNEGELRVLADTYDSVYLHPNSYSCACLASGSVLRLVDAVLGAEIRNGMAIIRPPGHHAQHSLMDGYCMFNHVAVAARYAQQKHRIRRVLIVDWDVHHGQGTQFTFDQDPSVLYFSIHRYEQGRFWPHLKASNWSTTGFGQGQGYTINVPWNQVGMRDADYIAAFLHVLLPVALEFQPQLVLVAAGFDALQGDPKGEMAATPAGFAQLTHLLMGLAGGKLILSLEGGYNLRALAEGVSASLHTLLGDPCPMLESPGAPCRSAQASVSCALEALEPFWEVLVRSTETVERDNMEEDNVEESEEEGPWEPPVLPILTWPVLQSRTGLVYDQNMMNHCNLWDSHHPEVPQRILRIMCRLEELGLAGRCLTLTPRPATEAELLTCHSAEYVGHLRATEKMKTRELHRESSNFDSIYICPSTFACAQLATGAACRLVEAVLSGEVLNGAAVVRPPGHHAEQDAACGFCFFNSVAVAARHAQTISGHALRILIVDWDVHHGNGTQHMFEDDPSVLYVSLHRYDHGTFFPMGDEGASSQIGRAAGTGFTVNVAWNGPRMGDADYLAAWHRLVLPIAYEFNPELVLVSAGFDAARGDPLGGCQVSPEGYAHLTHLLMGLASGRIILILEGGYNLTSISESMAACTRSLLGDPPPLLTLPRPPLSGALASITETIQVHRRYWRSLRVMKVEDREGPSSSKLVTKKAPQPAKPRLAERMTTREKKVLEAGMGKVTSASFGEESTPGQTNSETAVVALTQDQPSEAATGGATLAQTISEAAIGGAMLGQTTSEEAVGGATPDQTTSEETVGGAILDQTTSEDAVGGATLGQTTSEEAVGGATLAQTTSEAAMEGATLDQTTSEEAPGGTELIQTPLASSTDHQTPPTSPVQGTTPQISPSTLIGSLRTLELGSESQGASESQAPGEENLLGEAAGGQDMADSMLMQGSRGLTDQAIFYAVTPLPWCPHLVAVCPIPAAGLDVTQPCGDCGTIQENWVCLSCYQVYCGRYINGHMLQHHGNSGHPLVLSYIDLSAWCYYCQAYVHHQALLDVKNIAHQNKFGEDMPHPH

SGC-7901 = experiment: Antiproliferative activity against human SGC-7901 cells; type: functional, cell-based
HCT-116 [4] = experiment: cells; conditions: Homo sapiens
MCF7 [5] = experiment: cells; conditions: Homo sapiens
A549 [6] = experiment: Antiproliferative activity against human A549 cells
HL-60 = experiment: Antiproliferative activity against human HL-60 cells; type: functional, cell-based
MDA-MB-231 = experiment: Antiproliferative activity against human MDA-MB-231 cells
A-375 = experiment: Antiproliferative activity against human A-375 cells; type: functional, cell-based
Daudi = experiment: Cytotoxicity against human Daudi cells assessed as reduction in cell growth incubated for 24 hrs by MTT assay; type: functional, cell-based
Histone deacetylase 8 = target: T2, Histone deacetylase 8 (Homo sapiens, UniProt Q9BY41); experiment: Inhibition of HDAC8 (unknown origin) using R-H-K(Ac)-K(Ac)-AFC as fluoregenic substrate by fluorescence based analysis
T2 sequence (Q9BY41 whole entry): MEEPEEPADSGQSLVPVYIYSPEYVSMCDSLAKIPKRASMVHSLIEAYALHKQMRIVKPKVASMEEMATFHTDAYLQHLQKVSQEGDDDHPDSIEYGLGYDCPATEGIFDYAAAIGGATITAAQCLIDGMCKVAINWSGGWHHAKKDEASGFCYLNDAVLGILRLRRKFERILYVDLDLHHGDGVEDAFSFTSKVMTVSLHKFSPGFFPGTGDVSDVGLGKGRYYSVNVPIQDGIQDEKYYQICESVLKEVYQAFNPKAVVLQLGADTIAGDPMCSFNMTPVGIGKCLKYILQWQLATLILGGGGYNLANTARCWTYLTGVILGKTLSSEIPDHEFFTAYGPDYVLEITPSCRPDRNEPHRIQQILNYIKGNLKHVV

MCF7 [7] = experiment: Cytotoxicity against human MCF7 cells assessed as reduction in cell growth incubated for 24 hrs by MTT assay; type: functional, cell-based; conditions: MCF7, 24 h
MV4-11 = experiment: Cytotoxicity against human MV4-11 cells assessed as reduction in cell growth incubated for 24 hrs by MTT assay; type: functional, cell-based; conditions: MV4-11, 24 h
A549 [8] = experiment: Cytotoxicity against human A549 cells assessed as reduction in cell growth incubated for 24 hrs by MTT assay; type: functional, cell-based; conditions: A549, 24 h
[9] = target: Phosphatidylinositol 4,5-bisphosphate 3-kinase catalytic subunit alpha isoform (Homo sapiens, UniProt P42336); experiment: Inhibition of PI3Kalpha (unknown origin)
Histone deacetylase 1 = Histone deacetylase 1 (Homo sapiens, UniProt Q13547); experiment: Inhibition of HDAC1 (unknown origin)
A2780 = experiment: Antiproliferative activity against human A2780 cells; type: functional, cell-based
MCF7 [10] = experiment: Antiproliferative activity against human MCF7 cells measured after 72 hrs by MTT assay; type: functional, cell-based; conditions: MCF7, 72 h
HCT-116 [11] = experiment: Antiproliferative activity against human HCT-116 cells measured after 72 hrs by MTT assay; type: functional, cell-based; conditions: HCT-116, 72 h
A549 [12] = experiment: Antiproliferative activity against human A549 cells measured after 72 hrs by MTT assay; type: functional, cell-based; conditions: A549, 72 h

Sequence of Histone deacetylase 1 (Q13547 whole entry): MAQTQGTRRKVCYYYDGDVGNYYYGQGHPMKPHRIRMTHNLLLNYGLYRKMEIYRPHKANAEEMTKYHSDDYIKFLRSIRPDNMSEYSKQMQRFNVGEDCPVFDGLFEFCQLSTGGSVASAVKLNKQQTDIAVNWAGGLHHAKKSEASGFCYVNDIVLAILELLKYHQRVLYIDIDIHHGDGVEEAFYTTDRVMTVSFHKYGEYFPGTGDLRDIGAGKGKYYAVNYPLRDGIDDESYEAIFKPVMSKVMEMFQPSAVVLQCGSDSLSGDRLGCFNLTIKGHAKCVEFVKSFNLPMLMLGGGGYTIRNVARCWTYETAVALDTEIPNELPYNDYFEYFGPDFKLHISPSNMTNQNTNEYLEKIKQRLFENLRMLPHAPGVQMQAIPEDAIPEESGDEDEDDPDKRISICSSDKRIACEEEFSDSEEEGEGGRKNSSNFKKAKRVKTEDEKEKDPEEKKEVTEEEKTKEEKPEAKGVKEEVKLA
Sequence of Phosphatidylinositol 4,5-bisphosphate 3-kinase catalytic subunit alpha isoform (P42336 whole entry, canonical isoform): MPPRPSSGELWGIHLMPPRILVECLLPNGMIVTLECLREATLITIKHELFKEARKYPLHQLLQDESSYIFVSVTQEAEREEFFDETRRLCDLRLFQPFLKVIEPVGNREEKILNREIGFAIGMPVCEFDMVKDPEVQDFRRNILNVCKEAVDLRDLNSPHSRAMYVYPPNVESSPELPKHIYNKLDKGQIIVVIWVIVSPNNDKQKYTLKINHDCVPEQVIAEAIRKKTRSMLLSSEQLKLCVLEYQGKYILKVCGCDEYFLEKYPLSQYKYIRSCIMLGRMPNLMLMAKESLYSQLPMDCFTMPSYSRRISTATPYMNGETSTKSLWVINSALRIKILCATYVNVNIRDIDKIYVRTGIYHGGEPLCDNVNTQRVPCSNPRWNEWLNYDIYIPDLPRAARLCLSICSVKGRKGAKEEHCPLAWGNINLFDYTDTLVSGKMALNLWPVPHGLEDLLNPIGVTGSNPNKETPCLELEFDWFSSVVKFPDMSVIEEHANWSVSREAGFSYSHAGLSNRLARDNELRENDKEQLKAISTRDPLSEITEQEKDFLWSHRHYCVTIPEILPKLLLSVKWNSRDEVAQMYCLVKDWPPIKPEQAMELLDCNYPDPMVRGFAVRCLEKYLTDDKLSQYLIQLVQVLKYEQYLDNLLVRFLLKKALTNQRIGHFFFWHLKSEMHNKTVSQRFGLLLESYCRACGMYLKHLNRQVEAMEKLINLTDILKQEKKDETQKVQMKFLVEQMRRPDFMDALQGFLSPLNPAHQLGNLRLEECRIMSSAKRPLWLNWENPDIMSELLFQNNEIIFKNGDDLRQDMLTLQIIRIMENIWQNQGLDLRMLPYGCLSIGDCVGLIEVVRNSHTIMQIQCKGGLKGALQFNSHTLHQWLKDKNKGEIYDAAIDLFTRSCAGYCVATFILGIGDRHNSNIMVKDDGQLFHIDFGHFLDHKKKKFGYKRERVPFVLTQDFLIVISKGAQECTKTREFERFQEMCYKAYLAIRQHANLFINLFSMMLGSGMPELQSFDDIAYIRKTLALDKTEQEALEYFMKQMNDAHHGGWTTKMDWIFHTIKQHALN

SMILES: O=C(NO)c1csc(NS(=O)(=O)Nc2ccc(Cl)cc2)n1
IC50 (NCI-H23): 1450 nM
IC50 (SW-620): 1450 nM
IC50 (Histone deacetylase): 36 nM
IC50 (PC-3): 1450 nM

SMILES: CN1CCc2c(c3ccccc3n2Cc2ccc(C(=O)NO)cc2)C1 [TUBASTATIN A]
IC50 (U-266): 9450 nM
IC50 (RPMI-8226): 9450 nM
IC50 (MM1.S): 9450 nM

SMILES: O=C(Cc1ccc(C(=O)NO)cc1)Nc1ccc2ncnc(Nc3ccc(Cl)c(F)c3)c2c1
IC50 [3]: 1490 nM
IC50 (SGC-7901): 2200 nM
IC50 (HCT-116 [4]): 2200 nM
IC50 (MCF7 [5]): 2200 nM
IC50 (A549 [6]): 2200 nM
IC50 (HL-60): 2200 nM
IC50 (MDA-MB-231): 2200 nM
IC50 (A-375): 2200 nM

SMILES: O=C(Cc1ccc(C(=O)NO)cc1)Nc1ccc2ncnc(Nc3ccc(I)cc3)c2c1
IC50 [3]: 16300 nM
IC50 (SGC-7901): 2200 nM
IC50 (HCT-116 [4]): 2200 nM
IC50 (MCF7 [5]): 2200 nM
IC50 (A549 [6]): 2200 nM
IC50 (HL-60): 2200 nM
IC50 (MDA-MB-231): 2200 nM
IC50 (A-375): 2200 nM

SMILES: Cc1ccc(NS(=O)(=O)Nc2nc(C(=O)NO)cs2)cc1
IC50 (NCI-H23): 1450 nM
IC50 (SW-620): 1450 nM
IC50 (Histone deacetylase): 36 nM
IC50 (PC-3): 1450 nM

SMILES: COc1cc2c(Oc3ccc(NC(=O)C4(C(=O)Nc5ccc(F)cc5)CC4)cc3F)ccnc2cc1OCCCN1CCOCC1 [FORETINIB]
IC50 (MCF7 [10]): 520 nM
IC50 (HCT-116 [11]): 520 nM
IC50 (A549 [12]): 520 nM

SMILES: CC/C(=C(\c1ccccc1)c1ccc(OCCN(C)C)cc1)c1ccccc1 [TAMOXIFEN]
IC50 (MCF7 [5]): 22500 nM

Now from value to compound, other results behind:

IC50 (Histone deacetylase 8): 183 nM
SMILES: O=C(CCCCCN1C(=O)c2ccccc2/C=C\c2ccccc21)NO
IC50 (Daudi): 93 nM
IC50 (MCF7 [7]): 93 nM
IC50 (MV4-11): 93 nM
IC50 (A549 [8]): 93 nM

IC50 [9]: 1.3 nM
IC50 (Histone deacetylase 1): 4.8 nM
IC50 (A2780): 2310 nM
SMILES: COc1ncc(-c2ccc3ncc(C(=O)NCCCCCCC(=O)NO)cc3c2)cc1NS(=O)(=O)c1ccc(F)cc1F

IC50 [3]: 26 nM
IC50 (MCF7 [5]): 1960 nM
SMILES: COc1cc(OCCCCCCC(=O)NO)ccc1C1c2ccc(O)cc2CCN1CC(C)(C)F (centres undefined)

IC50 [9]: 1.3 nM
IC50 (Histone deacetylase 1): 4.8 nM
IC50 (A2780): 2620 nM
SMILES: COc1ncc(-c2ccc3nccc(C(=O)NCCCCCC(=O)NO)c3c2)cc1NS(=O)(=O)c1cc(F)cc(F)c1

IC50 (MCF7 [10]): 280 nM
IC50 (HCT-116 [11]): 280 nM
IC50 (A549 [12]): 280 nM
SMILES: COc1cc2c(Oc3ccc(NC(=O)C4CCN(c5cccc(F)c5)C4=O)cc3)ccnc2cc1OCCCCCCC(=O)NO (centres undefined)

IC50 (Histone deacetylase 8): 183 nM
SMILES: O=C(CCCCCN1C(=O)c2ccccc2NC(=O)c2cc3ccccc3cc21)NO
IC50 (Daudi): 93 nM
IC50 (MCF7 [7]): 93 nM
IC50 (MV4-11): 93 nM
IC50 (A549 [8]): 93 nM

IC50 (Histone deacetylase 8): 183 nM
SMILES: O=C(CCCCCN1C(=O)c2ccccc2NC(=O)c2ccccc21)NO
IC50 (Daudi): 93 nM
IC50 (MCF7 [7]): 93 nM
IC50 (MV4-11): 93 nM
IC50 (A549 [8]): 93 nM
